We go through one compound from patent US20060013801A1, “Prevention of and therapy for radiation toxicity of normal tissues using drugs which block il-1 activity” (priority 2002, published 2006).

Assay [1] relates to radiation (60 Gy) induced skin damage in MCa-35 mammary tumor-bearing mice. The assay can be described thus: Radiation induced skin damage by 5-scales Skin Scoring System. The conditions noted are these: for mice with severe skin damage (grades 4-5): 20 days after radiation. The class given is in vivo, C3H/HeN mice. The method, then:
(§1) Isotransplantable murine MCa-35 mammary tumor cells was inoculated i.m. into right hind thighs of 6-7 week-old female C3H/HeN mice (NCI, Fredrick, Md.). […] Mice were sacrificed 20 days after radiation.
(§2) Four experiment groups were used. […] Group 1 was radiation alone; mice in group 2 were given 50 mg/kg Celebrex 2 hours before radiation (2 hr pre-radiation); mice in group 3 and 4 were received the same amount of Celebrex at day 2 or day 7 post-radiation. […] All mice were sacrificed 20 day after radiation.
Radiation induce skin damage was assessed using 5-scales Skin Scoring System. 20 days after single 60 Gy radiation, mice from each treatment group were determined blindly for the degree of skin damage by three investigators. Grade 1: normal skin; grade 2: slight hair loss in irradiated area; grade 3: radish and swollen tissue; grad 4: small area erosion; grade 5: small ulceration. Grades 2-3 is referred as mild, and grades 4-5 is considered as severe skin damage.

Assay [2] has as its system C-C and C-X-C chemokine receptors mRNA. The assay can be described thus: RNase protection assay, C-C and C-X-C chemokine receptor mRNA expression. The class given is in vivo, C3H/HeN mice. As to the method:
as §1, §2
Total RNA was isolated from tumors and skin overlying tumors, respectively, with 9-10 mice in each treatment group by pulverizing the frozen tissue, and dissolved in TRI Reagent (Molecular Research Center, Ohio) according to the manufacturer's specifications.
Differences were considered significant for p<0.05.

The next assay relates to Rantes mRNA. The assay can be described thus: RNase protection assay, Rantes mRNA expression. The conditions noted are these: 60 Gy, 50 mg/kg Celebrex, vs 7.4±1.6 control, P<0.05, ratio to GAPDH or L32 mRNA.
For a further assay, the system named is MIP-2 mRNA. The assay can be described thus: RNase protection assay, MIP-2 mRNA expression.
Assay [3] relates to MCa-35 tumor and overlaying skin. The assay can be described thus: Histology of irradiated skin and MCa-35 tumor. The assay is classed as in vivo, C3H/HeN mice.
Excerpt: as §1
Tumors and the overlaying skin tissues were removed for histology and RNA preparation. Irradiated tissues (tumor and skin) were also collected for making paraffin blocks for immunohistochemical staining. Guidelines for the humane treatment of animals were followed as approved by the University of Rochester Committee on Animal Resources.
as §2
Immunohistochemistry methods have previously been described in detail. Immediately following cryostat sectioning, tissue slices (normal muscle and tumor) were stained with CD31 antibody (PharMingen Calif.) for determination of total vasculature. The stained sections were imaged using an epi-fluorescence equipped microscope, digitized (3-CCD camera), background-corrected, and image-analyzed using Image Pro software (Media Cybernetics, Mass.) and a 450 MHz Pentium computer. Color images from individual microscope fields were automatically acquired and digitally combined to form four montages of the tumor cross-section (total area=15.5 mm2) using a motorized stage and controller. The image montages were processed to enhance the contrast between background and CD31 staining. From the enhanced images, locations of CD31-stained vessels were recorded. The quantitative vascular information was analyzed using custom Fortran programs to perform a “closest individual” analysis as previously described. Briefly, the distances from computer-superimposed sampling points to the nearest blood vessel were determined. […]

In another assay the test system is MCP-1 mRNA. The assay can be described thus: RNase protection assay, MCP-1 mRNA expression. The conditions noted are these: 60 Gy.

“Also recorded” adds a separate entry of the source.

Consider `Cc1ccc(-c2cc(C(F)(F)F)nn2-c2ccc(S(N)(=O)=O)cc2)cc1` [Celebrex], for which the “effect on radiation induced normal skin damage” value in assay [1] (50 mg/kg daily gavage, 15 doses in three weeks, single 60 Gy) was “significantly reduced; also recorded: less radiation-induced skin damage”. Moreover, the “mice with severe skin damage (grades 4-5)” value in assay [1] (50 mg/kg gavage started 2 hr pre-radiation, 15 doses, single 60 Gy) was found to be 17.6%; in assay [1] (50 mg/kg gavage started day 2 post-radiation, 15 doses, single 60 Gy), 5.3%; in assay [1] (50 mg/kg gavage started day 7 post-radiation, 10 doses, single 60 Gy), 11.1%. Besides, the “treated mice that still developed moderate or severe skin damage after radiation” value in assay [1] (60 Gy, Celebrex-treated mice) is 15-30%. Besides, the “CXCR4 mRNA expression” value in assay [2] (skin of Celebrex-treated mice with less radiation-induced skin damage) is “significantly reduced”. Besides, the “mRNA expression of both C-C and C-X-C chemokine receptors in tumor skin” value in assay [2] (tumor skin, 60 Gy, not in tumor tissues) was “decrease mRNA expression”. Also, the “Rantes mRNA expression in irradiated skin tissues” value with Rantes mRNA is reported as 2.3±1.1. Also, in the assay on MIP-2 mRNA (after Celebrex treatment, 37.5% of mice with radiation alone), the “tumor skin with high MIP-2 mRNA expression” value was 14.3%-28.6%. Besides, the “effect on tumor MIP-2 mRNA” value in the assay with MIP-2 mRNA (tumor tissue, 60 Gy) was “did not significantly alter”. In addition, the “effect on MCa-35 tumor histology (blood vessels, necrosis)” value in assay [3] (oral administration, compared with saline-treated controls) is recorded as “reduction of blood vessels”. In addition, in assay [3] (pre- (2 hr) or post-radiation (day 2 or day 7) treatment, compared with saline-treated controls), the “inflammation and inflammatory cell infiltration in the dermis” value was “less inflammation and cellular component infiltration in the dermis; also recorded: less infiltration of inflammatory cells”. Moreover, in assay [3] (tumor tissue, compared with saline controls), the “infiltration of inflammatory cells in tumor tissue” value is given as “not obviously altered”. Moreover, the “MCP-1 mRNA expression in irradiated skin tissues” value in the assay on MCP-1 mRNA (irradiated skin, 50 mg/kg Celebrex, vs 18.8±3.2 control, p<0.05, ratio to GAPDH or L32 mRNA) was 10.2±1.1. Moreover, the “reduction of MCP-1 mRNA expression in tumor tissues” value with MCP-1 mRNA (tumor tissue) was “not in tumor tissues”.
